Assay results from PMC8305389, “Tuning Photodynamic Properties of BODIPY Dyes, Porphyrins’ Little Sisters” (Molecules, 2021).
Marks after values point to notes of the source that are not given here.

What was measured:
SK-MEL-28 cells = experiment: Dark toxicity (without irradiation), Neutral Red uptake; type: cell-based, human; conditions: 24 h in the dark, compounds precipitated over listed values
Procedure: (§1) The human cervical carcinoma (HeLa) and human melanoma (SK-MEL-28) cell lines were purchased from the American Type Cell Culture Collection (ATCC; Manassas, VA, USA). Both cell lines were cultured in Dulbecco’s modified Eagle’s medium (DMEM) without phenol red (Lonza, Verviers, Belgium) and supplemented with 10% heat-inactivated fetal bovine serum (Sigma-Aldrich (Merck, Darmstadt, Germany), 1% penicillin/streptomycin solution (Lonza), 10 mM HEPES buffer (Lonza), and 4 mM ultraglutamine I (alanyl-L-glutamine; Lonza). The cell lines were cultured in 75 cm^2 tissue culture flasks (TPP, Trasadingen, Switzerland) and maintained in a CO2 incubator at 37 °C in a humidified atmosphere of 5% CO2 and subcultured every 3−4 days. For the cytotoxicity experiments (phototoxicity and dark toxicity), cells were seeded into 96-well plates (TPP) at a density of 7.5 × 10^3 (HeLa and SK-MEL-28) cells per well for 24 h.
(§2) Stock solutions of the investigated compounds were prepared in DMSO at a concentration of 0.5 mM (4b) or 1 mM (all other compounds) and were sterilized by filtration through 0.22 μm syringe MCE filters. The stock solutions were diluted by the above-mentioned cell culture medium to the required concentrations. The maximum DMSO concentration in the medium in the experiments was 1% (2% in case of cpd. 4b). Cytoxicity of DMSO at corresponding concentrations (without studied compounds) was assessed in all cytotoxicity experiments as well—no toxicity against SK-MEL-28 or HeLa cells was observed.
To assess dark toxicities (inherent toxicities of the studied compounds without irradiation), SK-MEL-28 cells were treated with studied PSs for 24 h in the dark. Viability was evaluated after two washing steps using the Neutral Red (NR; Sigma-Aldrich (Merck, Darmstadt, Germany) uptake assay, based on the ability of the living cells to incorporate NR into their intact lysosomes (concentration of NR in cell culture medium was 30 μg/mL and incubation time with NR was 2 h). The absorbance of soluble NR in cell lysate was measured at λ = 540 nm using a Tecan Infinite 200 M plate reader (Tecan, Männedorf, Switzerland). The viability of each experimental group was expressed as the percentage of the untreated controls incubated under the same conditions (100%). After staining (before lysis), the cells were briefly investigated under the microscope to verify changes in cellular morphology and the presence of NR in lysosomes (orange-red spots in the cells). These observations were in agreement with NR measurements.
(§3) The concentrations of the studied compounds that induced a 50% decrease in cellular viability after treatment under the dark conditions (TC50, the median toxic concentration) or after the photodynamic treatment (EC50, the median effective concentration) were calculated using GraphPad Prism software (version 9.1.2; GraphPad Software, Inc., San Diego, CA, USA) for each independent experiment. The data are presented as the means ± standard deviations of these values.

[1] = Absorption and fluorescence measurements (quantum yield, lifetime); type: physicochemical; conditions: MeOH; for extinction coefficient (log ε): at λmax; for fluorescence quantum yield, absolute method (ΦF(absol)): integrating sphere; for fluorescence quantum yield, relative method (ΦF(relat)): rhodamin-G6 as reference; for fluorescence lifetime (τF): λexc = 506.1 nm
Procedure: The singlet oxygen quantum yields (ΦΔ) and the fluorescence quantum yields (ΦF) of tested samples in MeOH were determined using published comparative (relative) methods with rhodamin-G6 used as a reference for fluorescence (ΦF = 0.94 in EtOH [31]), and bengal rose as a reference for singlet oxygen determinations (ΦΔ = 0.76 in MeOH [32]). Singlet oxygen measurements were performed with 1,3-diphenylisobenzofuran as the chemical scavenger of singlet oxygen by monitoring its decomposition at 417 nm. The ΦF values were also determined by an absolute method using an integrating sphere in an FLS1000 fluorimeter (Edinburgh Instruments, Edinburgh, UK). Fluorescence lifetimes were measured on the same fluorimeter upon excitation by HPL510 laser (Edinburgh Instruments, λ = 506.1 nm).

[2] = test system: human cervical carcinoma (HeLa) cells; experiment: Photodynamic activity (phototoxicity) after light activation, Neutral Red uptake; type: cell-based; conditions: for EC50: Homo sapiens, light or radiation study, HeLa, 12 h incubation, λ > 455 nm, 15.3 mW cm−2, 15 min, 13.7 J cm−2; for PDT activity improved over S3AlOHPc (fold): comparison with literature value of S3AlOHPc (ref 37); for EC50 higher than temoporfin (fold): comparison with literature value of temoporfin (ref 37)
Procedure: as §1, §2
(§4) For the photodynamic activity assessment experiments (phototoxicity), both HeLa and SK-MEL-28 cells were incubated overnight (12 h) with the studied compounds. The cells were then carefully and swiftly washed twice with a prewarmed sterile phosphate-buffered saline, fresh cell culture medium was added, and cells were subsequently irradiated for 15 min using a 450 W ozone-free Xe lamp (Newport; intensity reduced to 400 W). The lamp was equipped with a long-pass filter (Newport 20CGA-455) and an 8-cm water filter to cut off undesirable wavelengths and heat radiation, respectively (λ > 455 nm, 15.3 mW cm^−2, 15 min, 13.7 J cm^−2). Cellular viability was measured after an additional 24 h by the above-mentioned NR uptake assay. At least four independent experiments, each in triplicate, were performed.
as §3

[3] = test system: human melanoma (SK-MEL-28) cells; experiment: as above; type: cell-based; conditions: for EC50: Homo sapiens, light or radiation study, 12 h incubation, λ > 455 nm, 15.3 mW cm−2, 15 min, 13.7 J cm−2
Procedure: as §1, §2, §4, §3

Structure (SMILES) | TC50, dark toxicity (SK-MEL-28 cells) | absorption maximum (λmax) [1] | emission maximum (λF) [1] | extinction coefficient (log ε) [1] | fluorescence quantum yield, absolute method (ΦF(absol)) [1] | fluorescence quantum yield, relative method (ΦF(relat)) [1] | fluorescence lifetime (τF) [1] | EC50 [2] | PDT activity improved over S3AlOHPc (fold) [2] | EC50 higher than temoporfin (fold) [2] | TC50/EC50, phototherapeutic index [3] | EC50 [3]
CC1=C(Br)C(C)=[N+]2C1=C(c1ccc(OCCCCCCCCN3C(=O)c4ccccc4C3=O)cc1)c1c(C)c(Br)c(C)n1[B-]2(F)F [4b, 2,6-Dibromo-1,3,5,7-Tetramethyl-8-{4-[8-(phthalimidyl)octyloxy]phenyl}-4,4-difluoro-4-bora-3a,4a-diaza-s-indacene] | >10 ^b μM | 523 nm | 538 nm | 4.04 | 0.23 | 0.22 | 1.54 ns | 370 ± 70 nM | 10 × | 3 × | >45.5 | 220 ± 50 nM
CC1=C(Br)C(C)=[N+]2C1=C(c1ccc(OCCCCCN3C(=O)c4ccccc4C3=O)cc1)c1c(C)c(Br)c(C)n1[B-]2(F)F [4a, 2,6-Dibromo-1,3,5,7-tetramethyl-8-{4-[5-(phthalimidyl)pentyloxy]phenyl}-4,4-difluoro-4-bora-3a,4a-diaza-s-indacene] | >10 ^b μM | 525 nm | 540 nm | 4.72 | 0.21 | 0.19 | 1.37 ns | 210 ± 20 nM | 10 × | 3 × | >123 | 81 ± 23 nM
CC1=CC(C)=[N+]2C1=C(c1ccc(OCCCCCCCCN3C(=O)c4ccccc4C3=O)cc1)c1c(C)cc(C)n1[B-]2(F)F [2b, 1,3,5,7-Tetramethyl-8-{4-[8-(phthalimidyl)octyloxy]phenyl}-4,4-difluoro-4-bora-3a,4a-diaza-s-indacene] | >10 ^b μM | 498 nm | 507 nm | 4.96 | 0.44 | 0.42 | 2.88 ns | 2400 ± 530 nM |  |  | >2.64 | 3790 ± 200 nM
CC1=CC(C)=[N+]2C1=C(c1ccc(OCCCCCCCCN)cc1)c1c(C)cc(C)n1[B-]2(F)F [5b, 1,3,5,7-Tetramethyl-8-[4-(8-aminooctyloxy)phenyl]-4,4-difluoro-4-bora-3a,4a-diaza-s-indacene] | >10 ^b μM | 498 nm | 507 nm | 4.00 | 0.50 | 0.47 | 3.22 ns | 1570 ± 330 nM |  |  | >4.13 | 2420 ± 460 nM
CC1=CC(C)=[N+]2C1=C(c1ccc(OCCCCCN)cc1)c1c(C)cc(C)n1[B-]2(F)F [5a, 1,3,5,7-Tetramethyl-8-[4-(5-aminopentyloxy)phenyl]-4,4-difluoro-4-bora-3a,4a-diaza-s-indacene] | >10 ^b μM | 498 nm | 507 nm | 4.90 | 0.43 | 0.44 | 3.25 ns | 9400 ± 700 nM |  |  | >2.78 | 3600 ± 660 nM
CC1=C(I)C(C)=[N+]2C1=C(c1ccc(OCCCCCCCCN3C(=O)c4ccccc4C3=O)cc1)c1c(C)c(I)c(C)n1[B-]2(F)F [3b, 2,6-Diiodo-1,3,5,7-tetramethyl-8-{4-[8-(phthalimidyl)octyloxy]phenyl}-4,4-difluoro-4-bora-3a,4a-diaza-s-indacene] | >10 ^b μM | 530 nm | 547 nm | 3.70 | 0.030 | 0.023 | 0.17 ns | 1570 ± 330 nM |  |  | >8.13 | 1230 ± 140 nM
CC1=C(I)C(C)=[N+]2C1=C(c1ccc(OCCCCCN3C(=O)c4ccccc4C3=O)cc1)c1c(C)c(I)c(C)n1[B-]2(F)F [3a, 2,6-Diiodo-1,3,5,7-tetramethyl-8-{4-[5-(phthalimidyl)pentyloxy]phenyl}-4,4-difluoro-4-bora-3a,4a-diaza-s-indacene] | >10 ^b μM | 530 nm | 546 nm | 4.36 | 0.022 | 0.024 | 0.17 ns | 140 ± 10 nM | 10 × | 3 × | >192 | 52 ± 10 nM
